# What was measured:
# hyperlipoproteinemia = test: Anti-hyperlipoproteinic activity in rats; type: in vivo, rat; details: 300 mg/Kg PO
# Description: The pharmacological activity increased with oral dose levels.
# white blood cells = test: Cyclophosphamide immunosuppression in albino mice; type: in vivo; details: cyclophosphamide alone
# Description: These compounds provided herein can also be used for enhancing cellular and humoral immunological activities. In particular, these compositions and compounds prevent or reduce the immunosuppressive side-effects associated with the administration of alkylating agents, such as cyclophosphamide, for treatment of certain cancers.
# [1] = system: rabbit blood clot formation; test: Ex vivo anti-thrombotic activity in treated rabbits (clot wet weight); details: 83 u/kg
# Method: Blood [1 ml] was removed from the carotid artery of treated animals and quickly injected into clot formation tubes. […] The wet weight of the clot was determined. The clot was dried at 60° C. overnight, and dry weight was determined.
# [2] = system: preformed rabbit blood clot; test: Ex vivo thrombolysis of preformed rabbit blood clot; details: 335 U/ml
# Method: A rabbit arterial blood clot [1 ml] was preformed at 37° C., for 60 min. The clot was incubated in vitro with the drug (0.1 ml, 6 groups) in the clot forming tube at 37° C. for 60 min. At the end of the incubation, the clot was removed and its wet weight determined. It was then dried overnight and its dry weight was determined.
# thrombus formation = test: Comparison of (M9 G)2 and heparin, thrombosis assay, Experiment 2; type: in vivo, rabbit; details: 83 u/kg
# Method: Rabbits were anesthetized and surgically instrumented using an established method in which the right carotid artery was connected via a polyethylene tube to the left external […]. A 15 cm [#4] surgical wire was left in the polyethylene tubing for thrombus formation. The animals were then treated with saline or drug intravenously for 10 minutes and the arterial-venous shunt was connected to allow blood flow for 15 minutes. The wire was then retrieved and weighed to determine the thrombus weight.
# [3] = system: fibrinolysis (euglobulin lysis); test: Euglobulin lysis time in rabbits; type: in vivo, rabbit; details: iv 333 U/Kg
# Description: ELT:englobulin (euglobulin) lysis time; a measurement of in vivo plasmin
# [4] = system: fibrin degradation protein (FDP); test: Fibrinolysis activity in rabbits (FDP, fibrinogen); type: in vivo, rabbit; details: iv 333 U/Kg
compound,measurement,setting,value
CCOC(=O)C(C)(C)Oc1ccc(Cl)cc1 [clofibrate],MDA,hyperlipoproteinemia,1.2 mmol/L
same,PTC (percent inhibition of total cholesterol),hyperlipoproteinemia,53%
same,TC,hyperlipoproteinemia,4.0 mmol/L
same,TG,hyperlipoproteinemia,0.4 mmol/L
O=P1(N(CCCl)CCCl)NCCCO1 (centres unmarked) [cyclophosphamide],White blood cell counts,white blood cells,close to zero
heparin,"Clot wet weight, 15 min after",[1],2.0 ± 4.5 mg
same,"Clot wet weight, 60 min after",[1],51 ± 23 mg
same,% Dissolution,[2],4.7 ± 8.5%
same,Clot dry weight,[2],14.1 ± 3.2
same,Clot wet weight,[2],56 ± 9
same,"Wet weight inhibition, 15 min",thrombus formation,97
same,"Wet weight inhibition, 60 min",thrombus formation,20
same,"Wet weight inhibition, 120 min",thrombus formation,0
same,"ELT time, 15 min post",[3],124 min
same,"ELT time, 60 min post",[3],197 min
same,"FDP, 15 min post",[4],18 ± 9 mg/L
same,"FDP, 60 min post",[4],6 ± 6. mg/L

# Reference: patent publication US5646130A, “Low molecular weight sulfated polysaccharides and uses thereof” (priority 1995, dated 1997)
